IC50 data for 30 compounds are collected here from patent US20050197350A1, “Novel quinoline, tetrahydroquinazoline, and pyrimidine derivatives and methods of treatment related to the use thereof” (TAISHO PHARMACEUTICAL CO., LTD., priority 2003, published 2005).

Where a name gives a salt, the structure may show the parent alone.

The target of the assay is MCH receptor (Homo sapiens, UniProt Q99705). Nature of the assay: High throughput functional screening FLIPR/FDSS6000 (intracellular Ca2+ evoked by MCH). Format: cell-based. Particulars: FLIPR/FDSS, antagonist activity vs 50 nM MCH; class by percent of control at 10^−7 M or IC50; table after the classification; read-out: class. The source says: High Throughput Functional Screening: FLIPR™
This assay utilized a non-endogenous, constitutively active version of the MCH receptor.
The concentration of free Ca^2+ in the cytosol of any cell is extremely low, whereas its concentration in the extracellular fluid and endoplasmic reticulum (ER) is very high. Thus, there is a large gradient tending to drive Ca^2+ into the cytosol across both the plasma membrane and ER. The FLIPR™ and FDSS6000™ systems (Molecular Devices Corporation, […] Photonics K.K.) are designed to perform functional cell-based assays, such as the measurement of intracellular calcium for high-throughput screening. The measurement of fluorescent is associated with calcium release upon activation of the Gq-coupled receptors.
Fluorometric Imaging Plate Reader system was used to allow for rapid, kinetic measurements of intracellular fluorescence in 96 well microplates (or 384 well microplates). Simultaneous measurements of fluorescence in all wells can be made by FLIPR or FDSS6000™ every second with high sensitivity and precision. These systems are ideal for measuring cell-based functional assays such as monitoring the intracellular calcium fluxes that occur within seconds after activation of the Gq coupled receptor.
Briefly, the cells are seeded into 96 well at 5.5×10^4 cells/well with complete culture media (Dulbecco's Modified Eagle Medium with 10% fetal bovine serum, 2 mM L-glutamine, 1 mM sodium pyruvate and 0.5 mg/ml G418, pH 7.4) for the assay next day. On the day of assay, the media is removed and the cells are incubated with 100 μl of loading buffer (4 μM Fluo4-AM in complete culture media containing 2.5 mM Probenicid, 0.5 mg/ml and 0.2% bovine serum albumin) in 5% CO2 incubator at 37° C. for 1 hr. The loading buffer is removed, and the cells are washed with wash buffer (Hank's Balanced Salt Solution containing 2.5 mM Probenicid, 20 mM HEPES, 0.5 mg/ml and 0.2% bovine serum albumin, pH 7.4)). One hundred fifty μl of wash buffer containing various concentrations of test compound is added to the cells, and the cells are incubated in 5% CO2 incubator at 37° C. for 30 min. […] 530 nm for 290 second. When antagonist activity of compound is tested, 50 nM of MCH is used.
Use of FLIPR™ and FDSS6000™ can be accomplished by following manufacturer's instruction (Molecular Device Corporation and […] Photonics K.K.).

With `O=C(N[C@H]1CC[C@@H](Nc2ccc3ccccc3n2)CC1)c1cccnc1Oc1ccc(F)cc1` [Example 3054, 2-(4-Fluoro-phenoxy)-N-[cis-4-(quinolin-2-ylamino)-cyclohexyl]-nicotinamide hydrochloride], the IC50 is less than 50 nM.

In the case of `O=C(N[C@H]1CC[C@@H](Nc2ccc3ccccc3n2)CC1)c1cccnc1Oc1ccc(F)c(F)c1` [Example 3055, 2-(3,4-Difluoro-phenoxy)-N-[cis-4-(quinolin-2-ylamino)-cyclohexyl]-nicotinamide hydrochloride], the IC50 is less than 50 nM.

As for `Cc1ccc(Oc2ncccc2C(=O)N[C@H]2CC[C@@H](Nc3ccc4ccccc4n3)CC2)cc1` [Example 3056, N-[cis-4-(Quinolin-2-ylamino)-cyclohexyl]-2-p-tolyloxy-nicotinamide hydrochloride], the IC50 was less than 50 nM.

In the case of `O=C(N[C@H]1CC[C@@H](Nc2ccc3ccccc3n2)CC1)c1cccnc1Oc1ccc(Cl)cc1` [Example 3057, 2-(4-Chloro-phenoxy)-N-[cis-4-(quinolin-2-ylamino)-cyclohexyl]-nicotinamide hydrochloride], the IC50 was less than 50 nM.

With `O=C(N[C@H]1CC[C@@H](Nc2ccc3ccccc3n2)CC1)c1cccnc1Oc1ccc(Br)cc1` [Example 3058, 2-(4-Bromo-phenoxy)-N-[cis-4-(quinolin-2-ylamino)-cyclohexyl]-nicotinamide hydrochloride], the IC50 was less than 50 nM.

On to `COc1ccc(Oc2ncccc2C(=O)N[C@H]2CC[C@@H](Nc3ccc4ccccc4n3)CC2)cc1` [Example 3059, 2-(4-Methoxy-phenoxy)-N-[cis-4-(quinolin-2-ylamino)-cyclohexyl]-nicotinamide hydrochloride], for which the IC50 was less than 50 nM.

For `O=C(N[C@H]1CC[C@@H](Nc2ccc3ccccc3n2)CC1)c1cccnc1Oc1ccc(F)c(Cl)c1` [Example 3060, 2-(3-Chloro-4-fluoro-phenoxy)-N-[cis-4-(quinolin-2-ylamino)-cyclohexyl]-nicotinamide hydrochloride], the IC50 was 50 to 200 nM.

In the case of `Cc1cccc(Oc2ncccc2C(=O)N[C@H]2CC[C@@H](Nc3ccc4ccccc4n3)CC2)c1` [Example 3061, N-[cis-4-(Quinolin-2-ylamino)-cyclohexyl]-2-m-tolyloxy-nicotinamide hydrochloride], the IC50 was less than 50 nM.

For `COc1cccc(OCC(=O)N[C@H]2CC[C@@H](Nc3ccc4ccccc4n3)CC2)c1` [Example 3062, 2-(3-Methoxy-phenoxy)-N-[cis-4-(quinolin-2-ylamino)-cyclohexyl]-acetamide hydrochloride], the IC50 was less than 50 nM.

In the case of `O=C(COc1cccc(Cl)c1)N[C@H]1CC[C@@H](Nc2ccc3ccccc3n2)CC1` [Example 3063, 2-(3-Chloro-phenoxy)-N-[cis-4-(quinolin-2-ylamino)-cyclohexyl]-acetamide hydrochloride], the IC50 was less than 50 nM.

For the compound `O=C(COc1ccc(F)c(Cl)c1)N[C@H]1CC[C@@H](Nc2ccc3ccccc3n2)CC1` [Example 3064, 2-(3-Chloro-4-fluoro-phenoxy)-N-[cis-4-(quinolin-2-ylamino)-cyclohexyl]-acetamide hydrochloride], the IC50 was less than 50 nM.

On to `O=C(COc1ccc(Cl)c(Cl)c1)N[C@H]1CC[C@@H](Nc2ccc3ccccc3n2)CC1` [Example 3065, 2-(3,4-Dichloro-phenoxy)-N-[cis-4-(quinolin-2-ylamino)-cyclohexyl]-acetamide hydrochloride], for which the IC50 is less than 50 nM.

For `CN(CC(=O)N[C@H]1CC[C@@H](Nc2ccc3ccccc3n2)CC1)c1ccccc1` [Example 3066, C-(Methyl-phenyl-amino)-N-[cis-4-(quinolin-2-ylamino)-cyclohexyl]-acetamide dihydrochloride], the IC50 was less than 50 nM.

Regarding `O=C(CNc1ccc(Cl)c(Cl)c1)N[C@H]1CC[C@@H](Nc2ccc3ccccc3n2)CC1` [Example 3067, 2-(3,4-Dichloro-phenylamino)-N-[cis-4-(quinolin-2-ylamino)-cyclohexyl]-acetamide dihydrochloride], the IC50 lay in the range of 50 to 200 nM.

As to `O=C(NC[C@H]1CC[C@@H](Nc2ccc3ccccc3n2)CC1)c1ccc(F)c(F)c1` [Example 3068, 3,4-Difluoro-N-[cis-4-(quinolin-2-ylamino)-cyclohexylmethyl]-benzamide hydrochloride], the IC50 was in the range of 50 to 200 nM.

Consider `O=C(NC[C@H]1CC[C@@H](Nc2ccc3ccccc3n2)CC1)c1cccnc1Oc1ccccc1` [Example 3069, 2-Phenoxy-N-[cis-4-(quinolin-2-ylamino)-cyclohexylmethyl]-nicotinamide hydrochloride], for which the IC50 was in the range of 50 to 200 nM.

For the compound `Cc1cc(N[C@H]2CC[C@@H](NC(=O)c3cccnc3Oc3ccccc3)CC2)nc2ccccc12` [Example 3070, N-[cis-4-(4-Methylquinolin-2-ylamino)-cyclohexyl]-2-phenoxy-nicotinamide hydrochloride], the IC50 is less than 50 nM.

Turning to `Cc1cc(N[C@H]2CC[C@@H](NC(=O)Nc3cccc(Cl)c3Cl)CC2)nc2ccccc12` [Example 3072, 1-(2,3-Dichloro-phenyl)-3-[cis-4-(4-methyl-quinolin-2-ylamino)-cyclohexyl]-urea hydrochloride], the IC50 is less than 50 nM.

`Cc1cc(N[C@H]2CC[C@@H](NC(=O)c3cccc(Cl)c3)CC2)nc2ccccc12` [Example 3073, 3-Chloro-N-[cis-4-(4-methyl-quinolin-2-ylamino)-cyclohexyl]-benzamide hydrochloride]: the IC50 is less than 50 nM.

For `Cc1cc(N[C@H]2CC[C@@H](NC(=O)c3csc([N+](=O)[O-])c3)CC2)nc2ccccc12` [Example 3074, 5-Nitro-thiophene-3-carboxylic acid [cis-4-(4-methyl-quinolin-2-ylamino)-cyclohexyl]-amide hydrochloride], the IC50 is less than 50 nM.

`Cc1cccc(C(=O)N[C@H]2CC[C@@H](Nc3cc(C)c4ccccc4n3)CC2)c1` [Example 3075, 3-Methyl-N-[cis-4-(4-methyl-quinolin-2-ylamino)-cyclohexyl]-benzamide hydrochloride]: the IC50 was less than 50 nM.

As to `COc1cccc(C(=O)N[C@H]2CC[C@@H](Nc3cc(C)c4ccccc4n3)CC2)c1` [Example 3076, 3-Methoxy-N-[cis-4-(4-methyl-quinolin-2-ylamino)-cyclohexyl]-benzamide hydrochloride], the IC50 is less than 50 nM.

Turning to `Cc1cc(N[C@H]2CC[C@@H](NC(=O)c3ccc(C#N)cc3)CC2)nc2ccccc12` [Example 3077, 4-Cyano-N-[cis-4-(4-methyl-quinolin-2-ylamino)-cyclohexyl]-benzamide hydrochloride], the IC50 was less than 50 nM.

`Cc1cc(N[C@H]2CC[C@@H](NC(=O)c3ccc(Cl)c(Cl)c3)CC2)nc2ccccc12` [Example 3078, 3,4-Dichloro-N-[cis-4-(4-methyl-quinolin-2-ylamino)-cyclohexyl]-benzamide hydrochloride]: the IC50 is less than 50 nM.

As for `Cc1cc(C(=O)N[C@H]2CC[C@@H](Nc3cc(C)c4ccccc4n3)CC2)ccc1F` [Example 3080, 4-Fluoro-3-methyl-N-[cis-4-(4-methyl-quinolin-2-ylamino)-cyclohexyl]-benzamide hydrochloride], the IC50 was less than 50 nM.

For `Cc1cc(N[C@H]2CC[C@@H](NC(=O)c3cc([N+](=O)[O-])cn3C)CC2)nc2ccccc12` [Example 3081, 1-Methyl-4-nitro-1H-pyrrole-2-carboxylic acid-[cis-4-(4-methyl-quinolin-2-ylamino)-cyclohexyl]-amide hydrochloride], the IC50 was less than 50 nM.

Turning to `Cc1cc(N[C@H]2CC[C@@H](NC(=O)C3c4ccccc4Oc4ccccc43)CC2)nc2ccccc12` [Example 3082, 9H-Xanthene-9-carboxylic acid-[cis-4-(4-methyl-quinolin-2-ylamino)-cyclohexyl]-amide hydrochloride], the IC50 was less than 50 nM.

With `Cc1cc(N[C@H]2CC[C@@H](NC(=O)c3ccc(Br)o3)CC2)nc2ccccc12` [Example 3083, 5-Bromo-furan-2-carboxylic acid-[cis-4-(4-methyl-quinolin-2-ylamino)-cyclohexyl]-amide hydrochloride], the IC50 was less than 50 nM.

For `Cc1cccc(OCC(=O)N[C@H]2CC[C@@H](Nc3cc(C)c4ccccc4n3)CC2)c1` [Example 3084, N-[cis-4-(4-Methyl-quinolin-2-ylamino)-cyclohexyl]-2-m-tolyloxy-acetamide hydrochloride], the IC50 is less than 50 nM.

On to `Cc1cc(N[C@H]2CC[C@@H](NC(=O)c3ccc4nonc4c3)CC2)nc2ccccc12` [Example 3085, Benzo[2,1,3]oxadiazole-5-carboxylic acid-[cis-4-(4-methyl-quinolin-2-ylamino)-cyclohexyl]-amide hydrochloride], for which the IC50 is less than 50 nM.
